Laboratory results as given in patent publication US20120165306A1, “PYRAZINYLPYRIDINES USEFUL FOR THE TREATMENT OF PROLIFERATIVE DISEASES” (priority 2009, published 2012).

Target: Cdk9/cyclinT1 (Homo sapiens, UniProt P50750)
Assay: Cdk9/cyclinT1 kinase assay (IMAP or Alpha Screen protocol)
From the text: Cdk9/cyclinT1 IMAP Protocol
Fluorescence polarization (FP) is used for detection.
Cdk9/cyclinT1 Alpha Screen Protocol

Sequence of Cdk9/cyclinT1 (P50750 whole entry): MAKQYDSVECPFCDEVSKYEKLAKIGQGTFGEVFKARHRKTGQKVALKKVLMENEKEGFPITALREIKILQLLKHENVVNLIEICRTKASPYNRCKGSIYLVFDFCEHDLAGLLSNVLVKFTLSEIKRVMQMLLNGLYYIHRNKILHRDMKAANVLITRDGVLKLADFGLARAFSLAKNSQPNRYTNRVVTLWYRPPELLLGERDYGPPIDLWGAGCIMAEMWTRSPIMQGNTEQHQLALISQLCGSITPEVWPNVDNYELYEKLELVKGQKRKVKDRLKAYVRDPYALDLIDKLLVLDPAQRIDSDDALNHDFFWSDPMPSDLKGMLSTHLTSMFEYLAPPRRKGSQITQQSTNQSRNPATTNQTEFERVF
Sequence of Cdk9/cyclinT1 (O60563 whole entry partner): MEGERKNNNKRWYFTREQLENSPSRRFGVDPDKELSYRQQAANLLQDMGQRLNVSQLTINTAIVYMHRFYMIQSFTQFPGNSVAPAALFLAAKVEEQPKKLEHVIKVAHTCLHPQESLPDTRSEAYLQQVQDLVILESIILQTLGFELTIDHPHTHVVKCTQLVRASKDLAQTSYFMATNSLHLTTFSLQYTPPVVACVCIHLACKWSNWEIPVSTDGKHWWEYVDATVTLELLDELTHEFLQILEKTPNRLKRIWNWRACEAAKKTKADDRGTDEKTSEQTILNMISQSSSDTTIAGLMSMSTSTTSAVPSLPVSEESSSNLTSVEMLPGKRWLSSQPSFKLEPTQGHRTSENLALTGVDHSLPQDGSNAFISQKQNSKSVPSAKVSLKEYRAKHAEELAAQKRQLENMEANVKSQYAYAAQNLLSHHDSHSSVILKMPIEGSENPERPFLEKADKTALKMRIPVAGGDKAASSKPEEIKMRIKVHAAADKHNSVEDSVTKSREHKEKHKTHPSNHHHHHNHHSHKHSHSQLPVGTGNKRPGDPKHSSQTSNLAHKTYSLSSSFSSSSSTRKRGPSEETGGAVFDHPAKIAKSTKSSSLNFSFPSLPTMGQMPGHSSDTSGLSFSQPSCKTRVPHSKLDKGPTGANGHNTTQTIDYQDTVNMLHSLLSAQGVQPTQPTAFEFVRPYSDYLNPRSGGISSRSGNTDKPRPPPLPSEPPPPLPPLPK

Row | SMILES | IC50
1 | O=C(Nc1cc(-c2cncc(NCC3CCCOC3)n2)c(Cl)cn1)[C@@H]1CCCNC1 (stereo partly drawn) [Example 26, (R)-Piperidine-3-carboxylic acid (5-chloro-4-{6-[(tetrahydro-pyran-3-ylmethyl)-amino]-pyrazin-2-yl}-pyridin-2-yl)-amide] | < 8 nM
2 | CCS(=O)(=O)N1CCC[C@H](C(=O)Nc2cc(-c3cncc(NCC4CCOCC4)n3)c(Cl)cn2)C1 [Example 45, (S)-1-Ethanesulfonyl-piperidine-3-carboxylic acid (5-chloro-4-{6-[(tetrahydro-pyran-4-ylmethyl)-amino]-pyrazin-2-yl}-pyridin-2-yl)-amide] | < 8 nM
3 | O=C(Nc1cc(-c2cncc(Cl)n2)c(Cl)cn1)[C@@H]1CCCNC1 [Example 38, (R)-Piperidine-3-carboxylic acid [5-chloro-4-(6-chloro-pyrazin-2-yl)-pyridin-2-yl]-amide] | 1400 nM
4 | O=C(Nc1cc(-c2cncc(NCc3cccnc3)n2)c(Cl)cn1)[C@@H]1CCCNC1 [Example 25, (R)-Piperidine-3-carboxylic acid (5-chloro-4-{6-[(pyridin-3-ylmethyl)-amino]-pyrazin-2-yl}-pyridin-2-yl)-amide] | 12 nM
5 | O=C(Nc1cc(-c2cncc(NCC3CCOCC3)n2)c(Cl)cn1)C1CCCC1 [Example 13, Cyclopentanecarboxylic acid (5-chloro-4-{6-[(tetrahydro-pyran-4-ylmethyl)-amino]-pyrazin-2-yl}-pyridin-2-yl)-amide] | 15 nM
6 | C[C@H](Nc1cncc(-c2cc(NC(=O)[C@@H]3CCCNC3)ncc2Cl)n1)C1CCCCC1 [Example 36, (R)-Piperidine-3-carboxylic acid {5-chloro-4-[6-((S)-1-cyclohexyl-ethylamino)-pyrazin-2-yl]-pyridin-2-yl}-amide] | < 8 nM
7 | CS(=O)(=O)N1CCC[C@H](C(=O)Nc2cc(-c3cncc(NCC4CCOCC4)n3)c(C(F)(F)F)cn2)C1 [Example 65, (S)-1-Methanesulfonyl-piperidine-3-carboxylic acid (4-{6-[(tetrahydro-pyran-4-ylmethyl)-amino]-pyrazin-2-yl}-5-trifluoromethyl-pyridin-2-yl)-amide] | 103 nM
8 | O=C(Nc1cc(-c2cncc(NCc3cncc(F)c3)n2)c(Cl)cn1)[C@@H]1CCCNC1 [Example 16, (R)-Piperidine-3-carboxylic acid (5-chloro-4-{6-[(5-fluoro-pyridin-3-ylmethyl)-amino]-pyrazin-2-yl}-pyridin-2-yl)-amide] | < 8 nM
9 | CS(=O)(=O)N[C@@H]1CC[C@@H](C(=O)Nc2cc(-c3cncc(NCC4CCOCC4)n3)c(Cl)cn2)C1 [Example 52, (1R,3R)-3-Methanesulfonylamino-cyclopentanecarboxylic acid (5-chloro-4-{6-[(tetrahydro-pyran-4-ylmethyl)-amino]-pyrazin-2-yl}-pyridin-2-yl)-amide] | < 8 nM
10 | CN(CC1CCOCC1)c1cncc(-c2cc(NC(=O)[C@@H]3CCCNC3)ncc2Cl)n1 [Example 30, (R)-Piperidine-3-carboxylic acid (5-chloro-4-{6-[methyl-(tetrahydro-pyran-4-ylmethyl)-amino]-pyrazin-2-yl}-pyridin-2-yl)-amide] | 12 nM
11 | N[C@@H]1CC[C@H](C(=O)Nc2cc(-c3cncc(NCC4CCOCC4)n3)c(Cl)cn2)C1 [Example 42, (1S,3R)-3-Amino-cyclopentanecarboxylic acid (5-chloro-4-{6-[(tetrahydro-pyran-4-ylmethyl)-amino]-pyrazin-2-yl}-pyridin-2-yl)-amide] | 25 nM
12 | Cc1cnc(NC(=O)C(C)C)cc1-c1cncc(NCC2CCOCC2)n1 [Example 60, N-(5-Methyl-4-{6-[(tetrahydro-pyran-4-ylmethyl)-amino]-pyrazin-2-yl}-pyridin-2-yl)-isobutyramide] | 73 nM
13 | CCS(=O)(=O)N1CCC[C@H](C(=O)Nc2cc(-c3cncc(NCC4CCOCC4)n3)c(C(F)(F)F)cn2)C1 [Example 66, (S)-1-Ethanesulfonyl-piperidine-3-carboxylic acid (4-{6-[(tetrahydro-pyran-4-ylmethyl)-amino]-pyrazin-2-yl}-5-trifluoromethyl-pyridin-2-yl)-amide] | 100 nM
14 | COC(=O)N[C@H]1CC[C@@H](C(=O)Nc2cc(-c3cncc(NCC4CCOCC4)n3)c(Cl)cn2)C1 [Example 54, [(1S,3R)-3-(5-Chloro-4-{6-[(tetrahydro-pyran-4-ylmethyl)-amino]-pyrazin-2-yl}-pyridin-2-ylcarbamoyl)-cyclopentyl]-carbamic acid methyl ester] | < 8 nM
15 | COCC(=O)Nc1cc(-c2cncc(NCC3CCOCC3)n2)c(Cl)cn1 [Example 10, N-(5-Chloro-4-{6-[(tetrahydro-pyran-4-ylmethyl)-amino]-pyrazin-2-yl}-pyridin-2-yl)-2-methoxy-acetamide] | 124 nM
16 | O=C(Nc1cc(-c2cncc(NC[C@H]3CCCO3)n2)c(Cl)cn1)[C@@H]1CCCNC1 [Example 31, (R)-Piperidine-3-carboxylic acid [5-chloro-4-(6-{[(R)-1-(tetrahydro-furan-2-yl)methyl]-amino}-pyrazin-2-yl)-pyridin-2-yl]-amide] | 19 nM

Row | SMILES | IC50
17 | C[C@@H](Nc1cncc(-c2cc(NC(=O)[C@@H]3CCCNC3)ncc2Cl)n1)C1CCCCC1 [Example 37, (R)-Piperidine-3-carboxylic acid {5-chloro-4-[6-((R)-1-cyclohexyl-ethylamino)-pyrazin-2-yl]-pyridin-2-yl}-amide] | < 8 nM
18 | O=C(Nc1cc(-c2cncc(NCC3CCOCC3)n2)c(Cl)cn1)C1CCCOC1 (centres unmarked) [Example 23, Tetrahydro-pyran-3-carboxylic acid (5-chloro-4-{6-[(tetrahydro-pyran-4-ylmethyl)-amino]-pyrazin-2-yl}-pyridin-2-yl)-amide] | 9 nM
19 | O=C(Nc1cc(-c2cncc(NCC3CCOCC3)n2)c(C(F)(F)F)cn1)[C@@H]1CCCNC1 [Example 61, (R)-Piperidine-3-carboxylic acid (4-{6-[(tetrahydro-pyran-4-ylmethyl)-amino]-pyrazin-2-yl}-5-trifluoromethyl-pyridin-2-yl)-amide] | 130 nM
20 | CC(C)C(=O)Nc1cc(-c2cncc(NCC3CCOCC3)n2)c(C(F)(F)F)cn1 [Example 58, N-(4-{6-[(Tetrahydro-pyran-4-ylmethyl)-amino]-pyrazin-2-yl}-5-trifluoromethyl-pyridin-2-yl)-isobutyramide] | 146 nM
21 | O=C(Nc1cc(-c2cncc(NCC3CCOCC3)n2)c(Cl)cn1)[C@@H]1CCCNC1 [Example 9, (R)-Piperidine-3-carboxylic acid (5-chloro-4-{6-[(tetrahydro-pyran-4-ylmethyl)-amino]-pyrazin-2-yl}-pyridin-2-yl)-amide] | < 8 nM
22 | Cc1ncc(NCC2CCOCC2)nc1-c1cc(NC(=O)[C@@H]2CCCNC2)ncc1Cl [Example 24, (R)-Piperidine-3-carboxylic acid (5-chloro-4-{3-methyl-6-[(tetrahydro-pyran-4-ylmethyl)-amino]-pyrazin-2-yl}-pyridin-2-yl)-amide] | < 8 nM
23 | CN1CC(C(=O)Nc2cc(-c3cncc(NCC4CCOCC4)n3)c(Cl)cn2)CC1=O (centres unmarked) [Example 68, 1-Methyl-5-oxo-pyrrolidine-3-carboxylic acid (5-chloro-4-{6-[(tetrahydro-pyran-4-ylmethyl)-amino]-pyrazin-2-yl}-pyridin-2-yl)-amide] | < 8 nM
24 | O=C(Nc1cc(-c2cncc(NCC3CCCCO3)n2)c(Cl)cn1)[C@@H]1CCCNC1 (stereo partly drawn) [Example 34, (R)-Piperidine-3-carboxylic acid (5-chloro-4-{6-[(tetrahydro-pyran-2-ylmethyl)-amino]-pyrazin-2-yl}-pyridin-2-yl)-amide] | 11 nM
25 | CC(=O)N1CCC[C@H](C(=O)Nc2cc(-c3cncc(NCC4CCOCC4)n3)c(Cl)cn2)C1 [Example 48, (S)-1-Acetyl-piperidine-3-carboxylic acid (5-chloro-4-{6-[(tetrahydro-pyran-4-ylmethyl)-amino]-pyrazin-2-yl}-pyridin-2-yl)-amide] | < 8 nM
26 | CC(C)C(=O)Nc1cc(-c2cncc(NCC3CCOCC3)n2)c(Cl)cn1 [Example 12, N-(5-Chloro-4-{6-[(tetrahydro-pyran-4-ylmethyl)-amino]-pyrazin-2-yl}-pyridin-2-yl)-isobutyramide] | < 8 nM
27 | CS(=O)(=O)N[C@H]1CC[C@@H](C(=O)Nc2cc(-c3cncc(NCC4CCOCC4)n3)c(Cl)cn2)C1 [Example 51, (1R,3S)-3-Methanesulfonylamino-cyclopentanecarboxylic acid (5-chloro-4-{6-[(tetrahydro-pyran-4-ylmethyl)-amino]-pyrazin-2-yl}-pyridin-2-yl)-amide] | < 8 nM
28 | N[C@H]1CC[C@@H](C(=O)Nc2cc(-c3cncc(NCC4CCOCC4)n3)c(Cl)cn2)C1 [Example 43, (1R,3S)-3-Amino-cyclopentanecarboxylic acid (5-chloro-4-{6-[(tetrahydro-pyran-4-ylmethyl)-amino]-pyrazin-2-yl}-pyridin-2-yl)-amide] | < 8 nM
29 | O=C(Nc1cc(-c2cncc(NC3CCOCC3)n2)c(Cl)cn1)[C@@H]1CCCNC1 [Example 27, (R)-Piperidine-3-carboxylic acid {5-chloro-4-[6-(tetrahydro-pyran-4-ylamino)-pyrazin-2-yl]-pyridin-2-yl}-amide] | 48 nM
30 | CS(=O)(=O)N1CCC[C@@H](C(=O)Nc2cc(-c3cncc(NCC4CCOCC4)n3)c(Cl)cn2)C1 [Example 4, (R)-1-Methanesulfonyl-piperidine-3-carboxylic acid (5-chloro-4-{6-[(tetrahydro-pyran-4-ylmethyl)-amino]-pyrazin-2-yl}-pyridin-2-yl)-amide] | 179 nM
31 | C[C@@H](O)CNc1cncc(-c2cc(NC(=O)[C@@H]3CCCNC3)ncc2Cl)n1 [Example 28, (R)-Piperidine-3-carboxylic acid {5-chloro-4-[6-((R)-2-hydroxy-propylamino)-pyrazin-2-yl]-pyridin-2-yl}-amide] | 15 nM
32 | COCCNc1cncc(-c2cc(NC(=O)[C@@H]3CCCNC3)ncc2Cl)n1 [Example 35, (R)-Piperidine-3-carboxylic acid {5-chloro-4-[6-(2-methoxy-ethylamino)-pyrazin-2-yl]-pyridin-2-yl}-amide] | 47 nM
